Measured values from patent US9745284B2, “2-pyridyloxy-4-ether orexin receptor antagonists” (MERCK SHARP & DOHME CORP., priority 2013, dated 2017).

Key:
human orexin-2 receptor = human orexin-2 receptor (Homo sapiens (Human), UniProt O43614); assay: FLIPR Ca2+ flux assay, orexin-2 receptor; type: cell-based; details: CHO cells expressing human orexin-2 receptor; agonist 70 pM Ala-6,12 orexin-A; read-out: hOX2R FLIPR IC50
Description: The utility of the compounds in accordance with the present invention as orexin receptor OX1R and/or OX2R antagonists may be readily determined without undue experimentation by methodology well known in the art, including the “FLIPR Ca^2+ Flux Assay” (Okumura et al., Biochem. Biophys. Res. Comm. 280:976-981, 2001). In a typical experiment the OX1 and OX2 receptor antagonistic activity of the compounds of the present invention was determined in accordance with the following experimental method. For intracellular calcium measurements, Chinese hamster ovary (CHO) cells expressing the rat orexin-1 receptor or the human orexin-2 receptor, are grown in Iscove's modified DMEM containing 2 mM L-glutamine, […], 1% hypoxanthine-thymidine supplement, 100 U/ml penicillin, 100 μg/ml streptomycin and 10% heat-inactivated fetal calf serum (FCS). The cells are seeded at 20,000 cells/well into Becton-Dickinson black 384-well clear bottom sterile plates coated with poly-D-lysine. All reagents were from GIBCO-Invitrogen Corp. The seeded plates are incubated overnight at 37° C. and 5% CO2. Ala-6,12 human orexin-A as the agonist is prepared as a 1 mM stock solution in 1% bovine serum albumin (BSA) and diluted in assay buffer (HBSS containing 20 mM HEPES, 0.1% BSA and 2.5 mM probenecid, pH7.4) for use in the assay at a final concentration of 70 pM. Test compounds are prepared as 10 mM stock solution in DMSO, then diluted in 384-well plates, first in DMSO, then assay buffer. On the day of the assay, cells are washed 3 times with 100 μl assay buffer and then incubated for 60 min (37° C., 5% CO2) in 60 μl assay buffer containing 1 μM Fluo-4AM ester, 0.02% pluronic acid, and 1% BSA. The dye loading solution is then aspirated and cells are washed 3 times with 100 μl assay buffer. 30 μl of that same buffer is left in each well. Within the Fluorescent Imaging Plate Reader (FLIPR, Molecular Devices), test compounds are added to the plate in a volume of 25 μl, incubated for 5 min and finally 25 μl of agonist is added. Fluorescence is measured for each well at 1 second intervals for 5 minutes and the height of each fluorescence peak is compared to the height of the fluorescence peak induced by 70 pM Ala-6,12 orexin-A with buffer in place of antagonist. For each antagonist, IC50 value (the concentration of compound needed to inhibit 50% of the agonist response) is determined. Alternatively, compound potency can be assessed by a radioligand binding assay (described in Bergman et. al. Bioorg. Med. Chem. Lett. 2008, 18, 1425-1430) in which the inhibition constant (Ki) is determined in membranes prepared from CHO cells expressing either the OX1 or OX2 receptor. The intrinsic orexin receptor antagonist activity of a compound which may be used in the present invention may be determined by these assays.

hOX1R = hOX1R (Homo sapiens, UniProt O43613); assay: FLIPR Ca2+ flux assay, orexin-1 receptor; type: cell-based; details: CHO cells expressing orexin-1 receptor; agonist 70 pM Ala-6,12 orexin-A

Chain of human orexin-2 receptor (O43614 whole entry): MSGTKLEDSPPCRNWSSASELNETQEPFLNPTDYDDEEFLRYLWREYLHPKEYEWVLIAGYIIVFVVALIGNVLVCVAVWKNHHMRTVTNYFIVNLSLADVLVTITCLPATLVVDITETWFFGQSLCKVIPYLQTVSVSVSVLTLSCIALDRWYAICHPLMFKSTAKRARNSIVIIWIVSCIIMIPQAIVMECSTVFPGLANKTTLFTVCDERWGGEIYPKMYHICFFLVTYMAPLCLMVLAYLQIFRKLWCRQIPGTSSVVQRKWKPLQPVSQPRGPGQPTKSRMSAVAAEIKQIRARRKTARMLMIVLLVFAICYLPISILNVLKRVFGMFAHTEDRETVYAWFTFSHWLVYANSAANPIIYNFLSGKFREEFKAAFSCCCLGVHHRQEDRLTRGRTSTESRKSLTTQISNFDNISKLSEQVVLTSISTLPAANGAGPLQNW

Compound	IC50 (human orexin-2 receptor)	IC50 (hOX1R)
CCOc1ccnc(O[C@@H]2CC[C@@H](C)N(C(=O)c3ccccc3-n3nccn3)C2)c1 [Example 1, 4-Ethoxy-2-{[(3R,6R)-6-methyl-1-{[2-(2H-1,2,3-triazol-2-yl)phenyl]carbonyl}piperidin-3-yl]oxy}pyridine]	20.5 nM	859 nM
COc1ccnc(O[C@@H]2CC[C@@H](C)N(C(=O)c3ccccc3-n3nccn3)C2)c1 [Example 2, 4-methoxy-2-{[(3R,6R)-6-methyl-1-{[2-(2H-1,2,3-triazol-2-yl)phenyl]carbonyl}piperidin-3-yl]oxy}pyridine]	12.5 nM	617 nM
COc1ccnc(O[C@@H]2CC[C@@H](C)N(C(=O)c3ccccc3-n3nccn3)C2)c1Br [Example 3, 3-bromo-4-methoxy-2-{[(3R,6R)-6-methyl-1-{[2-(2H-1,2,3-triazol-2-yl)phenyl]carbonyl}piperidin-3-yl]oxy}pyridine]	14.7 nM	843 nM
C[C@@H]1CC[C@@H](Oc2cc(OCc3ccccc3)ccn2)CN1C(=O)c1ccccc1-n1nccn1 [Example 4, 4-(benzyloxy)-2-{[(3R,6R)-6-methyl-1-{[2-(2H-1,2,3-triazol-2-yl)phenyl]carbonyl}piperidin-3-yl]oxy}pyridine]	59.4 nM	1850 nM
CC(C)Oc1ccnc(O[C@@H]2CC[C@@H](C)N(C(=O)c3ccccc3-n3nccn3)C2)c1 [Example 5, 4-(1-Methylethoxy)-2-{[(3R,6R)-6-methyl-1-{[2-(2H-1,2,3-triazol-2-yl)phenyl]carbonyl}piperidin-3-yl]oxy}pyridine]	15.1 nM	669 nM
COc1ccnc(O[C@@H]2CC[C@@H](C)N(C(=O)c3ccccc3-n3ncnn3)C2)c1 [Example 6, 4-Methoxy-2-{[(3R,6R)-6-methyl-1-{[2-(2H-tetrazol-2-yl)phenyl]carbonyl}piperidin-3-yl]oxy}pyridine]	19 nM	2180 nM
CC(C)Oc1ccnc(O[C@@H]2CC[C@@H](C)N(C(=O)c3ccccc3-n3ncnn3)C2)c1 [Example 7, 4-(1-methylethoxy)-2-{[(3R,6R)-6-methyl-1-{[2-(2H-tetrazol-2-yl)phenyl]carbonyl}piperidin-3-yl]oxy}pyridine]	23 nM	1200 nM
CCOc1ccnc(O[C@@H]2CC[C@@H](C)N(C(=O)c3ccccc3-n3ncnn3)C2)c1 [Example 8, 4-ethoxy-2-{[(3R,6R)-6-methyl-1-{[2-(2H-tetrazol-2-yl)phenyl]carbonyl}piperidin-3-yl]oxy}pyridine]	35.4 nM	2010 nM
COc1ccnc(O[C@@H]2CC[C@@H](C)N(C(=O)c3cccc(F)c3-n3nccn3)C2)c1 [Example 10, 2-{[(3R,6R)-1-{[3-fluoro-2-(2H-1,2,3-triazol-2-yl)phenyl]carbonyl}-6-methylpiperidin-3-yl]oxy}-4-methoxypyridine]	14.7 nM	576 nM
COc1ccnc(O[C@@H]2CC[C@@H](C)N(C(=O)c3ccccc3C3CC3)C2)c1 [Example 12, 2-({(3R,6R)-1-[(2-cyclopropylphenyl)carbonyl]-6-methylpiperidin-3-yl}oxy)-4-methoxypyridine]	11 nM	938 nM
COc1ccnc(O[C@@H]2CC[C@@H](C)N(C(=O)c3ccccc3C(F)(F)F)C2)c1 [Example 13, 4-methoxy-2-{[(3R,6R)-6-methyl-1-{[2-(trifluoromethyl)phenyl]carbonyl}piperidin-3-yl]oxy}pyridine]	56.2 nM	1760 nM
CCOc1ccccc1C(=O)N1C[C@H](Oc2cc(OC)ccn2)CC[C@H]1C [Example 14, 2-({(3R,6R)-1-[(2-ethoxyphenyl)carbonyl]-6-methylpiperidin-3-yl}oxy)-4-methoxypyridine]	34.8 nM	1980 nM
COc1ccnc(O[C@@H]2CC[C@@H](C)N(C(=O)c3ccc(OC)nc3-c3ccccc3)C2)c1 [Example 15, 6-methoxy-3-({(2R,5R)-5-[(4-methoxypyridin-2-yl)oxy]-2-methylpiperidin-1-yl}carbonyl)-2-phenylpyridine]	24.5 nM	746 nM
COc1ccnc(O[C@@H]2CC[C@@H](C)N(C(=O)c3c(F)cccc3-n3nccn3)C2)c1 [Example 17, 2-{[(3R,6R)-1-{[2-fluoro-6-(2H-1,2,3-triazol-2-yl)phenyl]carbonyl}-6-methylpiperidin-3-yl]oxy}-4-methoxypyridine]	27 nM	1600 nM
COc1ccnc(O[C@@H]2CC[C@@H](C)N(C(=O)c3ccc(OC)nc3-n3nccn3)C2)c1 [Example 18]	94.5 nM	10000 nM
COc1ccnc(O[C@@H]2CC[C@@H](C)N(C(=O)c3ccc(F)cc3-n3nccn3)C2)c1 [Example 19, 2-{[(3R,6R)-1-{[4-fluoro-2-(2H-1,2,3-triazol-2-yl)phenyl]carbonyl}-6-methylpiperidin-3-yl]oxy}-4-methoxypyridine]	22.1 nM	1800 nM
COc1ccnc(O[C@@H]2CC[C@@H](C)N(C(=O)c3ccc(OC)cc3-n3nccn3)C2)c1 [Example 20, 4-methoxy-2-{[(3R,6R)-1-{[4-methoxy-2-(2H-1,2,3-triazol-2-yl)phenyl]carbonyl}-6-methylpiperidin-3-yl]oxy}pyridine]	114 nM	10000 nM
COc1ccnc(O[C@@H]2CC[C@@H](C)N(C(=O)c3ccc(OC)nc3C3CC3)C2)c1 [Example 21, 2-cyclopropyl-6-methoxy-3-({(2R,5R)-5-[(4-methoxypyridin-2-yl)oxy]-2-methylpiperidin-1-yl}carbonyl) pyridine]	38.3 nM	8190 nM
CC(C)Oc1ccnc(O[C@@H]2CC[C@@H](C)N(C(=O)c3ccc(F)cc3-n3nccn3)C2)c1 [Example 23, 2-{[(3R,6R)-1-{[4-fluoro-2-(2H-1,2,3-triazol-2-yl)phenyl]carbonyl}-6-methylpiperidin-3-yl]oxy}-4-(1-methylethoxy) pyridine]	41.2 nM	2140 nM
COc1ccc(C(=O)N2C[C@H](Oc3cc(OC(C)C)ccn3)CC[C@H]2C)c(-n2nccn2)c1 [Example 24, 2-{[(3R,6R)-1-{[4-methoxy-2-(2H-1,2,3-triazol-2-yl)phenyl]carbonyl}-6-methylpiperidin-3-yl]oxy}-4-(1-methylethoxy) pyridine]	136 nM	10000 nM
COc1ccc(C(=O)N2C[C@H](Oc3cc(OC(C)C)ccn3)CC[C@H]2C)c(-n2nccn2)n1 [Example 25, 6-methoxy-3-{[(2R,5R)-2-methyl-5-{[4-(1-methylethoxy)pyridin-2-yl]oxy}piperidin-1-yl]carbonyl}-2-(2H-1,2,3-triazol-2-yl)pyridine]	110 nM	10000 nM
CC(C)Oc1ccnc(O[C@@H]2CC[C@@H](C)N(C(=O)c3cc(F)ccc3-n3nccn3)C2)c1 [Example 26, 2-{[(3R,6R)-1-{[5-fluoro-2-(2H-1,2,3-triazol-2-yl)phenyl]carbonyl}-6-methylpiperidin-3-yl]oxy}-4-(1-methylethoxy) pyridine]	37.2 nM	2480 nM
C[C@@H]1CC[C@@H](Oc2cc(OCC(F)F)ccn2)CN1C(=O)c1ccccc1-n1nccn1 [Example 27, (2-(2H-1,2,3-triazol-2-yl)phenyl)((2R,5R)-5-((4-(2,2-difluoroethoxy)pyridin-2-yl)oxy)-2-methylpiperidin-1-yl)methanone]	12 nM	1420 nM
C[C@@H]1CC[C@@H](Oc2cc(OCC(F)(F)F)ccn2)CN1C(=O)c1ccccc1-n1nccn1 [Example 28, (2-(2H-1,2,3-triazol-2-yl)phenyl)((2R,5R)-2-methyl-5-((4-(2,2,2-trifluoroethoxy)pyridin-2-yl)oxy)piperidin-1-yl)methanone]	8 nM	1340 nM
COc1ccnc(O[C@@H]2CC[C@@H](C)N(C(=O)c3ccsc3-n3nccn3)C2)c1 [Example 59, 4-methoxy-2-{[(3R,6R)-6-methyl-1-{[2-(2H-1,2,3-triazol-2-yl)thiophen-3-yl]carbonyl}piperidin-3-yl]oxy}pyridine]	11 nM	
